Here are results for three molecules from patent US20250032506A1, “GLUCOCORTICOID RECEPTOR BLOCKADE WITH MIFEPRISTONE TO SENSITIZE PANCREATIC CANCER TO IMMUNOTHERAPY” (BOARD OF REGENTS, THE UNIVERSITY OF TEXAS SYSTEM, priority 2021, published 2025).

Residues, ends and D or L forms follow the SMILES beside them. *: point of attachment. Cbz = O=C(OCc1ccccc1)*

The test system of one assay is SU86.86 cells. As to the kind of experiment: qPCR, immunoblotting and flow cytometry of PD-L1 and MHC-I pathway expression in SU86.86 cells. The following applies: immunoblotting, mifepristone 20 μM, 48 h with MG132 (10 μM, 6 h) or chloroquine (20 μM, 4 h). It counts as cell-based, human. On the procedure:
(See Bardeesy, N., et al. supra). The human PDAC cell lines SU86.86 ([…]), SW1990 ([…]), BXPC-3 ([…]), Miapaca-2 ([…]), Capan-1 ([…]), ASPC-1 ([…]), Hs766T ([…]), Colo357/FG ([…]), L3.6PL ([…]), Panc28 ([…]), Capan-2 ([…]), CF-Pac-1 ([…]), Panc3 (sex unknown), Panc1 ([…]), Panc48 (sex unknown), and HPAC ([…]) were from Mien-Chie Hung's lab stock. […] The BXPC-3, Miapaca-2, Capan-1, ASPC-1, Colo357/FG, L3.6PL, Panc28, Capan-2, CF-Pac-1, Panc3, Panc1, Panc48, and HPAC cell lines were cultured in DMEM/F-12 (Corning, 10-092-CV) supplemented with 10% FBS and 1% penicillin/streptomycin. Cells were grown in a humidified incubator with 5% CO2 at 37° C., and low-passage stocks were maintained in a centralized lab cell bank. Short tandem repeat profiling and mycoplasma tests were done by the Cytogenetics and Cell Authentication Core at MD Anderson Cancer Center.
Membranes were blocked with 10% non-fat milk in TBST and incubated with the primary antibody at 4° C. overnight, followed by incubation with the secondary antibody conjugated with horseradish peroxidase (HRP).
A general note: In qPCR the cycle at which signal appears reflects the starting amount.

The subject of assay [1] is human PD-L1, HLA-B, HLA-C, and B2M gene promoter regions. The assay is described as follows: Luciferase reporter assay in SU86.86 cells. The following applies: IFNγ 10 ng ml^−1, 8 h, abrogated by knockdown of GR. It counts as cell-based. From the text: (§1) Human PD-L1 promoter-reporter constructs (Coelho, M. A., et al. Oncogenic RAS Signaling Promotes Tumo Immunoresistance by Stabilizing PD-L1 mRNA. Immunity 47, 1083-1099 e1086 (2017)) were purchased from Addgene (Addgene numbers: 107002, 107003, 107004, 107006, and 107007). The GR activity reporter plasmid was purchased from Qiagen (ID: C82DB0D7-3D10-4B1C-A358-411558D2DE01). The promoter regions of human HLA-B, HLA-C, and B2M were PCR-amplified from genomic DNA of the SU86.86 cell line (PCR primers are listed as SEQ ID NOs.: 1-6. The linearized pGL3-basic plasmid was amplified by PCR (Forward primer SEQ ID NO: 7; reverse primer SEQ ID NO: 8), and PCR products of promoter regions were ligated to linearized pGL3-basic using the In-Fusion HD Cloning Kit (Takara Bio, 638909).
(§2) The firefly luciferase reporter containing the human gene promoter was co-transfected with a Renilla luciferase vector (for normalization) into SU86.86 cells using jetPRIME transfection reagent (VWR, 89129-922). […] Firefly and Renilla luciferase activities were measured using a Dual-Luciferase Reporter Assay (Promega, E1910) on a microplate reader according to the manufacturer's protocol. Firefly luciferase activity was normalized to Renilla luciferase activity.

The test system of assay [2] is human PD-L1 gene promoter regions. As to the kind of experiment: Luciferase reporter assay in SW1990 cells. Format: cell-based. The note with it: IFNγ 10 ng ml^−1, 8 h, abrogated by knockdown of GR.
Text: as §1, §2
In general terms: Reporter assays use an easily measured gene product as a stand-in for the process of interest.

Consider `CC(C)C[C@@H](C=O)NC(=O)[C@H](CC(C)C)NC(=O)[C@H](CC(C)C)NC(=O)OCc1ccccc1` [MG132] (Cbz-Leu-Leu-Leu-aldehyde), for which, in the assay on SU86.86 cells, the “effect on mifepristone-mediated PD-L1 downregulation and MHC-I upregulation” value was “did not affect”.
For `CCN(CC)CCCC(C)Nc1ccnc2cc(Cl)ccc12` (stereo not shown) [chloroquine], in the assay on SU86.86 cells, the “effect on mifepristone-mediated PD-L1 downregulation and MHC-I upregulation” value was “did not affect”.

B1: IFNγ: IFNγ (known to activate PD-L1 transcription) (protein, UniProt P01579 24-161, looked up)
Interferon gamma: QDPYVKEAENLKKYFNAGHSDVADNGTLFLGILKNWKEESDRKIMQSQIVSFYFKLFKNFKDDQSIQKSVETIKEDMNVKFFNSNKKKRDDFEKLTNYSVTDLNVQRKAIHELIQVMAELSPAAKTGKRKRSQMLFRG
For the molecule B1, the “activity of the PD-L1 promoter reporters” value in assay [1] and in assay [2] was “induced” each time.
